Values belong to the compound of their own block, whether it stands above or below them. The source made the active and inactive calls. The calls are words filed in the database; no cut-off is given here.
Assays:
[1] = Selectivity ratio for inhibition of PDE9A (unknown origin) using FAM-cyclic-3',5'-AMP as substrate to inhibition of PDE4B1 (unknown origin) using FAM-cyclic-3',5'-AMP as substrate
[2] = molecular target: T1, 3',5'-cyclic-AMP phosphodiesterase 4D (Homo sapiens, UniProt Q08499); test: Inhibition of PDE4D7 (unknown origin) using FAM-cyclic-3',5'-AMP as substrate at 100 nM incubated for 1 hrs by fluorescence polarization based IMAP assay relative to control
[3] = Selectivity ratio for inhibition of PDE9A (unknown origin) using FAM-cyclic-3',5'-AMP as substrate to inhibition of PDE4D7 (unknown origin) using FAM-cyclic-3',5'-AMP as substrate
HT-22 = test: Cytotoxicity against mouse HT-22 cells assessed as reduction in cell viability incubated for 48 hrs by MTT assay; type: toxicity, cell-based; conditions: ht-22, 48 h
[4] = Selectivity ratio for inhibition of PDE3B (unknown origin) using FAM-cyclic-3',5'-AMP as substrate to inhibition of PDE4D7 (unknown origin) using FAM-cyclic-3',5'-AMP as substrate
[5] = molecular target: 3',5'-cyclic-AMP phosphodiesterase 4B (Homo sapiens, UniProt Q07343); test: Inhibition of PDE4B1 (unknown origin) using FAM-cyclic-3',5'-AMP as substrate incubated for 1 hrs by fluorescence polarization based IMAP assay
[6] = molecular target: High affinity 3',5'-cyclic-AMP phosphodiesterase 7A (Homo sapiens) (UniProt Q13946); test: Inhibition of PDE7A (unknown origin) using FAM-cyclic-3',5'-AMP as substrate at 10 uM incubated for 1 hrs by fluorescence polarization based IMAP assay relative to control
[7] = molecular target: cGMP-inhibited 3',5'-cyclic phosphodiesterase 3B (Homo sapiens) (UniProt Q13370); test: Inhibition of PDE3B (unknown origin) using FAM-cyclic-3',5'-AMP as substrate at 10 uM incubated for 1 hrs by fluorescence polarization based IMAP assay relative to control
[8] = Selectivity ratio for inhibition of PDE8A1 (unknown origin) using FAM-cyclic-3',5'-AMP as substrate to inhibition of PDE4B1 (unknown origin) using FAM-cyclic-3',5'-AMP as substrate
[9] = Toxicity in ketamine/xylazine-induced anesthetic C57BL/6J mouse model assessed as emetogenic potential by measuring reduction in anesthesia duration at 5 mg/kg, po preadministered with compound for 15 mins followed by ketamine/xylazine administration; type: organism-based; conditions: in vivo, 0.25 h
[10] = Selectivity ratio for inhibition of PDE7A (unknown origin) using FAM-cyclic-3',5'-AMP as substrate to inhibition of PDE4D7 (unknown origin) using FAM-cyclic-3',5'-AMP as substrate
[11] = molecular target: High affinity cAMP-specific and IBMX-insensitive 3',5'-cyclic phosphodiesterase 8A (Homo sapiens) (UniProt O60658); test: Inhibition of PDE8A1 (unknown origin) using FAM-cyclic-3',5'-AMP as substrate at 10 uM incubated for 1 hrs by fluorescence polarization based IMAP assay relative to control
[12] = molecular target: T1, 3',5'-cyclic-AMP phosphodiesterase 4D; test: Inhibition of PDE4D7 (unknown origin) using FAM-cyclic-3',5'-AMP as substrate at 10 nM incubated for 1 hrs by fluorescence polarization based IMAP assay relative to control
SH-SY5Y = test: Cytotoxicity against human SH-SY5Y cells assessed as reduction in cell viability incubated for 48 hrs by MTT assay; type: toxicity, cell-based
[13] = molecular target: T1, 3',5'-cyclic-AMP phosphodiesterase 4D; test: Inhibition of PDE4D7 (unknown origin) using FAM-cyclic-3',5'-AMP as substrate incubated for 1 hrs by fluorescence polarization based IMAP assay
[14] = Selectivity ratio for inhibition of PDE3B (unknown origin) using FAM-cyclic-3',5'-AMP as substrate to inhibition of PDE4B1 (unknown origin) using FAM-cyclic-3',5'-AMP as substrate
[15] = molecular target: High affinity cGMP-specific 3',5'-cyclic phosphodiesterase 9A (Homo sapiens) (UniProt O76083); test: Inhibition of PDE9A (unknown origin) using FAM-cyclic-3',5'-AMP as substrate at 10 uM incubated for 1 hrs by fluorescence polarization based IMAP assay relative to control
[16] = Chemical stability of compound in aqueous solution at pH >10 measured after 48 hrs; type: physicochemical; conditions: buffer
[17] = Selectivity ratio for inhibition of PDE8A1 (unknown origin) using FAM-cyclic-3',5'-AMP as substrate to inhibition of PDE4D7 (unknown origin) using FAM-cyclic-3',5'-AMP as substrate
[18] = Selectivity ratio for inhibition of PDE7A (unknown origin) using FAM-cyclic-3',5'-AMP as substrate to inhibition of PDE4B1 (unknown origin) using FAM-cyclic-3',5'-AMP as substrate
[19] = Chemical stability of compound in aqueous solution at pH <6 measured after 48 hrs; type: physicochemical; conditions: buffer
Mus musculus [20] = test: (§1) Protection against alcoholic liver disease in NIAAA C57BL/6J mouse model assessed as decrease in serum AST level at 1 mg/kg, po preadministered with 1 to 4 % of alcohol for 10 days with subsequent compound addition from day 6 to 11 and further administered with 31.25 % alcohol on day 11 and measured after 9 hrs by absorbance based plate analyzer; type: functional, organism-based; conditions: time 5.0 day
Mus musculus [21] = test: (§2) Protection against alcohol-induced motor impairment in C57BL/6J mouse model assessed as increase in distance travelled at 1 mg/kg, po preadministered with compound every 24 hrs for 3 times followed by alcohol administration 30 mins post last dose and further treated with compound for 3 days followed by alcohol administration 30 mins post last dose and measured at 2 to 20 mins by open field test; type: functional, organism-based; conditions: time 8702-8720 min
Mus musculus [22] = test: as §1, with “ALT” for “AST”; type: functional, organism-based; conditions: time 5.0 day
Mus musculus [23] = test: as §1, with “improvement of liver injury” for “decrease in serum AST level”, “H&E staining” for “absorbance”, “light microscopic analysis” for “plate analyzer”; type: functional, organism-based; conditions: time 5.0 day
Mus musculus [24] = test: Protection against alcohol use disorder in C57BL/6J mouse model assessed as decrease in alcohol preference at 1 mg/kg, po pre-trained with alcohol and water for 42 days with subsequent compound addition on day 22 and measured after 3 weeks by two-bottle choice test; type: functional, organism-based
Mus musculus [25] = test: (§3) Protection against alcohol exposure-induced anxiety like behavior in C57BL/6J mouse model assessed as distance travelled at 1 mg/kg, po pre-trained with alcohol and water for 42 days with subsequent compound addition from day 22 to day 42 followed by 3.5 hrs of darkness and compound administration for 30 mins followed by water replacement with alcohol for 4 hrs and measured 24 hrs after alcohol withdrawal by open field test; type: functional, organism-based
[26] = Toxicity in ketamine/xylazine-induced anesthetic C57BL/6J mouse model assessed as emetogenic potential by measuring reduction in anesthesia duration at 0.5 to 1 mg/kg, po preadministered with compound for 15 mins followed by ketamine/xylazine administration; type: organism-based; conditions: in vivo, 0.25 h, dose 0.5-1 mg/kg
Mus musculus [27] = test: as §1, with “reduction” for “decrease”, “liver IL-6 mRNA” for “serum AST”, “RT-qPCR analysis” for “absorbance based plate analyzer”; type: functional, organism-based; conditions: time 5.0 day
Mus musculus [28] = test: as §1, with “reduction” for “decrease”, “liver IL-1beta mRNA” for “serum AST”, “RT-qPCR analysis” for “absorbance based plate analyzer”; type: functional, organism-based; conditions: time 5.0 day
Mus musculus [29] = test: as §1, with “improvement of liver injury” for “decrease in serum AST level”, “Oil Red O staining” for “absorbance”, “light microscopic analysis” for “plate analyzer”; type: functional, organism-based; conditions: time 5.0 day
Mus musculus [30] = test: as §2, with “recovery of average speed” for “increase in distance travelled”; type: functional, organism-based; conditions: time 8702-8720 min
Mus musculus [31] = test: as §1, with “improvement of steatosis” for “decrease in serum AST level”, “H&E staining” for “absorbance”, “light microscopic analysis” for “plate analyzer”; type: functional, organism-based; conditions: time 5.0 day
Mus musculus [32] = test: as §1, with “reduction” for “decrease”, “TNF-alpha” for “AST”, “ELISA” for “absorbance based plate analyzer”; type: functional, organism-based; conditions: time 5.0 day
Mus musculus [33] = test: as §3, with “increase in center time” for “distance travelled”; type: functional, organism-based; conditions: time 24.0 day
Mus musculus [34] = test: as §1, with “reduction” for “decrease”, “IL-6” for “AST”, “ELISA” for “absorbance based plate analyzer”; type: functional, organism-based; conditions: time 5.0 day
Mus musculus [35] = test: Protection against alcohol use disorder in C57BL/6J mouse model assessed as decrease in alcohol intake at 1 mg/kg, po pre-trained with alcohol and water for 42 days with subsequent compound addition from day 22 to day 42 followed by 3.5 hrs of darkness and compound administration for 30 mins followed by water replacement with alcohol for 4 hrs on day 46 by Drink-in-Dark test; type: functional, organism-based; conditions: time 23.0 day
Mus musculus [36] = test: as §1, with “liver index” for “serum AST level”, “hrs” for “hrs by absorbance based plate analyzer”; type: functional, organism-based; conditions: time 5.0 day
Mus musculus [37] = test: as §2, with “decrease” for “increase”, “resting time” for “distance travelled”; type: functional, organism-based; conditions: time 8702-8720 min
Mus musculus [38] = test: as §2, with “short recovery time by measuring latency to falling off” for “increase in distance travelled”, “rotarod” for “open field”; type: functional, organism-based; conditions: time 8702-8720 min
[39] = molecular target: T1, 3',5'-cyclic-AMP phosphodiesterase 4D; test: Inhibition of PDE4D7 (unknown origin) using FAM-cyclic-3',5'-AMP as substrate at 1 microM incubated for 1 hrs by fluorescence polarization based IMAP assay relative to control
Mus musculus [40] = test: as §1, with “reduction” for “decrease”, “liver TNF-alpha mRNA” for “serum AST”, “RT-qPCR analysis” for “absorbance based plate analyzer”; type: functional, organism-based; conditions: time 5.0 day
Mus musculus [41] = test: as §1, with “improvement of steatosis” for “decrease in serum AST level”, “Oil Red O staining” for “absorbance”, “light microscopic analysis” for “plate analyzer”; type: functional, organism-based; conditions: time 5.0 day
Mus musculus [42] = test: Protection against alcohol use disorder in C57BL/6J mouse model assessed as decrease in alcohol intake at 1 mg/kg, po pre-trained with alcohol and water for 42 days with subsequent compound addition on day 22 and measured after 3 weeks by two-bottle choice test; type: functional, organism-based
Mus musculus [43] = test: Protection against alcohol-induced sedation in C57BL/6J mouse model assessed as reduction in sleep time at 1 mg/kg, po preadministered with compound every 24 hrs for 3 times followed by alcohol administration 30 mins post last dose; type: functional, organism-based; conditions: time 72.5 hrs
[44] = Half-life in Sprague-Dawley rat at 10 mg/kg, po measured after 48 hrs by LC-MS/MS analysis; type: ADME, organism-based; conditions: in vivo
[45] = Oral bioavailability in Sprague-Dawley rat at 10 mg/kg measured after 48 hrs by LC-MS/MS analysis; type: ADME, organism-based; conditions: in vivo

T1 sequence (Q08499 whole entry): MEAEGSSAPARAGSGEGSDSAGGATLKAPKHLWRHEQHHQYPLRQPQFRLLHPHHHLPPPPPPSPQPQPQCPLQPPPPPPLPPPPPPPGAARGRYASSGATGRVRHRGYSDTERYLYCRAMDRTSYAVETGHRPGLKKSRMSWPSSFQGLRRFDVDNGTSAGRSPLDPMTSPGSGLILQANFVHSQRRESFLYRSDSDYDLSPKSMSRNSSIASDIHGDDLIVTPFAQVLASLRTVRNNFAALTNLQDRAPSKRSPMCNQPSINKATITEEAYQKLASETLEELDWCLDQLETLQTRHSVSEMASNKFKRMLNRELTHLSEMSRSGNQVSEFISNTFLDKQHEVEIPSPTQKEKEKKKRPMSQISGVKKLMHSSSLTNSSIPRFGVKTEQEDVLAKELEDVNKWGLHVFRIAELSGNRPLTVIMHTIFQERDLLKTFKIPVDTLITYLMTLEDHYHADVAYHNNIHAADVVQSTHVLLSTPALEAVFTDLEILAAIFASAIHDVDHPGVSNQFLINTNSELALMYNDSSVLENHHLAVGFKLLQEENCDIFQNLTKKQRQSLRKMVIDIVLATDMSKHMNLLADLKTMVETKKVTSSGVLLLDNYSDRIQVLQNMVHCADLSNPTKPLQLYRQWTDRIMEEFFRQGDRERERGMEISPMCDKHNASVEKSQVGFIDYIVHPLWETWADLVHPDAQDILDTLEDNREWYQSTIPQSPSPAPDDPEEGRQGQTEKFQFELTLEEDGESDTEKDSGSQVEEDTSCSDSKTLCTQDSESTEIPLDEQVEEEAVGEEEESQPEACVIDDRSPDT
High affinity cGMP-specific 3',5'-cyclic phosphodiesterase 9A (Homo sapiens), sequence (O76083 whole entry): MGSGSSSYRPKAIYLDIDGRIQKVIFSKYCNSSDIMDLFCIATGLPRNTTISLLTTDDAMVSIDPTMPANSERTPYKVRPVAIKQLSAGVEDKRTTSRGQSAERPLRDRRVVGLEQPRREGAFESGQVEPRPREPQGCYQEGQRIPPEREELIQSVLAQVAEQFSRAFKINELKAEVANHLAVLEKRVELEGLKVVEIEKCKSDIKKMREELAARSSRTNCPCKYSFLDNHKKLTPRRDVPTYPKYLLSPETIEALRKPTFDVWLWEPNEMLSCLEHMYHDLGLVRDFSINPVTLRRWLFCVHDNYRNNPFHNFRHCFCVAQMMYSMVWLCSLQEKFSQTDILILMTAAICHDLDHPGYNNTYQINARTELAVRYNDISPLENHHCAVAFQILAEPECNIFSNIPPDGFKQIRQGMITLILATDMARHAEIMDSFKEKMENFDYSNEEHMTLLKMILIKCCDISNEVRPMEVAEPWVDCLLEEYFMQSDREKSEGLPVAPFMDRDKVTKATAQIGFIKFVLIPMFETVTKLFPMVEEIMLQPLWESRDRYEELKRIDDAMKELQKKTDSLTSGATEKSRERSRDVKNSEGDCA
3',5'-cyclic-AMP phosphodiesterase 4B, sequence (Q07343 whole entry): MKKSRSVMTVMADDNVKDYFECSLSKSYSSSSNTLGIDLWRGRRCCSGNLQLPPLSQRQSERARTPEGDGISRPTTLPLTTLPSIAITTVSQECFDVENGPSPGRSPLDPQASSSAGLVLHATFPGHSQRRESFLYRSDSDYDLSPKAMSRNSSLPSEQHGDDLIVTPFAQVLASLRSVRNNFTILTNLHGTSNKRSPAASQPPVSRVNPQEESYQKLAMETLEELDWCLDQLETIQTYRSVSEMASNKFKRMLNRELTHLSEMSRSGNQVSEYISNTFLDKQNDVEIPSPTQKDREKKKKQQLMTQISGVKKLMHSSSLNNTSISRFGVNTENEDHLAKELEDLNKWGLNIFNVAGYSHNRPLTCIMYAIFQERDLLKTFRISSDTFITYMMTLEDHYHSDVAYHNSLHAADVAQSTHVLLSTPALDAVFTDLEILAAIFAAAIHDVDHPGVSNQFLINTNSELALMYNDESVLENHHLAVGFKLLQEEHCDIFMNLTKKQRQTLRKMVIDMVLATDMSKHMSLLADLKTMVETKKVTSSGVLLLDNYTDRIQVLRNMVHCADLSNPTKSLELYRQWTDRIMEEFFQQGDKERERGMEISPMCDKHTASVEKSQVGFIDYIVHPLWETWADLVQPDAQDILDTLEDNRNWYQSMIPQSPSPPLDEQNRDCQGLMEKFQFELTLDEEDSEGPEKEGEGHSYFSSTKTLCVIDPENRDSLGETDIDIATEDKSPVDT
High affinity cAMP-specific and IBMX-insensitive 3',5'-cyclic phosphodiesterase 8A (Homo sapiens), sequence (O60658 whole entry): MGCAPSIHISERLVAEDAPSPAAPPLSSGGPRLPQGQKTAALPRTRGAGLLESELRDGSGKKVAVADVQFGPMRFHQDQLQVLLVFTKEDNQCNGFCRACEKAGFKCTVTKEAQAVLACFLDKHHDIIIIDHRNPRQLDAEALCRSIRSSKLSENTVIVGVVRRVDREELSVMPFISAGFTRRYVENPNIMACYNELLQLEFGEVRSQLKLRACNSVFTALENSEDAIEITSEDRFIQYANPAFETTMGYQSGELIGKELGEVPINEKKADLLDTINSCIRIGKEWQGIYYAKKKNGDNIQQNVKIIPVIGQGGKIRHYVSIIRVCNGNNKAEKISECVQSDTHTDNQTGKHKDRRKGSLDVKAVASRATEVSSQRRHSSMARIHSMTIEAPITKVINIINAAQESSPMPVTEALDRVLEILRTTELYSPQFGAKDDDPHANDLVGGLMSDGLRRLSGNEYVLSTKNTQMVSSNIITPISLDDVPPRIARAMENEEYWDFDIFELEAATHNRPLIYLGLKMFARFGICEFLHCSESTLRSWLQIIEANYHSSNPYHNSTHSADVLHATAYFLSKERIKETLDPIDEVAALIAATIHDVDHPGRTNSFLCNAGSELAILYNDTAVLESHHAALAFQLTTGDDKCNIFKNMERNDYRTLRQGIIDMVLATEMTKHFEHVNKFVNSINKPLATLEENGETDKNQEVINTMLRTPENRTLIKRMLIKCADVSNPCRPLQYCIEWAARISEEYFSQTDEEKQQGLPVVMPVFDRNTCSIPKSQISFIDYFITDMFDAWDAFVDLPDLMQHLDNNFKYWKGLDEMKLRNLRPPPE
cGMP-inhibited 3',5'-cyclic phosphodiesterase 3B (Homo sapiens), sequence (Q13370 whole entry, looked up): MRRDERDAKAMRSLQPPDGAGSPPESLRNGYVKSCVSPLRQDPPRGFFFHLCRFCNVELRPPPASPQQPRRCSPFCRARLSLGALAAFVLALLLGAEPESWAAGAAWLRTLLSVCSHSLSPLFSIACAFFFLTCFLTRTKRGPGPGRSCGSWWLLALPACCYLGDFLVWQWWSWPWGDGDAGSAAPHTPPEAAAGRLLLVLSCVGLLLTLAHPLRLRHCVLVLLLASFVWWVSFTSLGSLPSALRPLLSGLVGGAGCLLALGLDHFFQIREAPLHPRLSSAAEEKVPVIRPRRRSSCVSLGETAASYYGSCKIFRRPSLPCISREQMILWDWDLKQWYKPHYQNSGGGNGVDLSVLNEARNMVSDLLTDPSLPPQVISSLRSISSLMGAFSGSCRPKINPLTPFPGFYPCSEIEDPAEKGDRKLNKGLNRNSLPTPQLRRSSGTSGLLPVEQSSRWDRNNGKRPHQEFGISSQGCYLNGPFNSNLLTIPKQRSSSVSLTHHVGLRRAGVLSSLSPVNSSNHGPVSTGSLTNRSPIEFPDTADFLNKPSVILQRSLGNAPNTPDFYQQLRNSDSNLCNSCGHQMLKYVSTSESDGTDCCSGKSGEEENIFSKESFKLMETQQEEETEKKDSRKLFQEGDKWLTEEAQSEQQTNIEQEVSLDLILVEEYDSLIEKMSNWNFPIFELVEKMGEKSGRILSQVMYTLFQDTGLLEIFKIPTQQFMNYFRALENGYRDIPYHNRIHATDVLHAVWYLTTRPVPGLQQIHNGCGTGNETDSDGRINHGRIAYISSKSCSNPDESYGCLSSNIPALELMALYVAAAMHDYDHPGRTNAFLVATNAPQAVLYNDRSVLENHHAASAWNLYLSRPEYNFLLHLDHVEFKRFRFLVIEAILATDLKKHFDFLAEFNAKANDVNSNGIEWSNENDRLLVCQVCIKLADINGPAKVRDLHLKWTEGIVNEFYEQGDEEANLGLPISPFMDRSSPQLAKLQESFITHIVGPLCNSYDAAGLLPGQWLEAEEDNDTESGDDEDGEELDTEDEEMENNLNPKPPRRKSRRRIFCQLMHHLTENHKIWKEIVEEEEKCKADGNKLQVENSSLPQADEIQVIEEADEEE
High affinity 3',5'-cyclic-AMP phosphodiesterase 7A (Homo sapiens), sequence (Q13946 whole entry): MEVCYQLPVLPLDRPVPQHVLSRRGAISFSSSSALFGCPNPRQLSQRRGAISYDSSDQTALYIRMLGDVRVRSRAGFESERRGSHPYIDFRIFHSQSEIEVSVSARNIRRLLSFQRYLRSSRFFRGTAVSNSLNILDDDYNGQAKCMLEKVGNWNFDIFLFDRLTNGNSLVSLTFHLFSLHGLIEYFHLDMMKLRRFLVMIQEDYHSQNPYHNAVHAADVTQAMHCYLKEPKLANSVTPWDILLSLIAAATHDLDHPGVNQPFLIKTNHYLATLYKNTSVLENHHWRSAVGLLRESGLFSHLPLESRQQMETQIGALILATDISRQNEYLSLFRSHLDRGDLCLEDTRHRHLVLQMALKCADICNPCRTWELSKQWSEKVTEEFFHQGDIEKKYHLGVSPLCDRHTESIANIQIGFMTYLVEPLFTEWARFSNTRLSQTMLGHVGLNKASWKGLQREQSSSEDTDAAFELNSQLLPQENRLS

Selectivity ratio [1]: > 284
inhibition [2]: 69%
Selectivity ratio [3]: > 284
Selectivity ratio [4]: > 284
IC50 [5]: 35.2 nM
inhibition [6]: 12%
inhibition [7]: 7%
Selectivity ratio [8]: > 284
Selectivity ratio [10]: > 284
inhibition [11]: 7%
inhibition [12]: 35%
IC50 [13]: 25.6 nM
Selectivity ratio [14]: > 284
inhibition [15]: 6%
Stability [16]: Stable
Selectivity ratio [17]: > 284
Selectivity ratio [18]: > 284
Stability [19]: Stable
SMILES: CCOc1nc(Cl)cc2nn(CCC(=O)O)cc12
Activity (HT-22): Non-Toxic
Activity [9]: Toxic
Activity (SH-SY5Y): Non-Toxic

inhibition [2]: 34%
inhibition [39]: 72%
SMILES: COc1ccc(C2CNC(=O)C2)cc1OC1CCCC1 (stereo not drawn) [ROLIPRAM]
Activity (Mus musculus [20]): Active
Activity (Mus musculus [21]): Active
Activity (Mus musculus [22]): Active
Activity (Mus musculus [23]): Active
Activity (Mus musculus [24]): Active
Activity (Mus musculus [25]): Active
Activity [26]: Toxic
Activity (Mus musculus [27]): Active
Activity (Mus musculus [28]): Active
Activity (Mus musculus [29]): Active
Activity (Mus musculus [30]): Active
Activity (Mus musculus [31]): Active
Activity (Mus musculus [32]): Active
Activity (Mus musculus [33]): Active
Activity (Mus musculus [34]): Active
Activity (Mus musculus [35]): Active
Activity (Mus musculus [36]): Active
Activity (Mus musculus [37]): Active
Activity (Mus musculus [38]): inactive
Activity (Mus musculus [40]): Active
Activity (Mus musculus [41]): Active
Activity (Mus musculus [42]): Active
Activity (Mus musculus [43]): inactive

half-life [44]: 59.4 min
bioavailability [45]: 43%
SMILES: CCNc1cc(C(=O)C2CCCC2)ccc1OC

Reference: ChEMBL document CHEMBL5532675, “Discovery of 4-Ethoxy-6-chloro-5-azaindazoles as Novel PDE4 Inhibitors for the Treatment of Alcohol Use Disorder and Alcoholic Liver Diseases” (J Med Chem, 2024)
